Assay results as given in patent US20220356164A1, “2-AMINOSELENOPHEN COMPOUNDS WITH ANTI-DRUG RESISTANT BACTERIA ACTIVITY AND A METHOD OF PREPARING THE SAME” (ZHUHAI JINAN SELENIUM SOURCE NANOTECHNOLOGY CO., LTD., priority 2021, published 2022).
In brackets after ≈: the same amount, converted by molar mass. Where two headings read alike, the source gives them in different places.

Legend:
Assay type in all cases: cell-based
[1] = test system: methicillin-resistant Staphylococcus aureus MRSA 18-575; experiment: micro broth dilution MIC, MRSA 18-575; settings: read-out: The minimum inhibitory concentration, MRSA 18-575
Excerpt: (§1) Using micro broth dilution method, with ceftazidime and vancomycin as positive controls, test the minimum inhibitory concentration (MIC) of compounds 9, 11, and 14.
(§2) The experimental strains included drug-resistant gram-positive bacteria: methicillin-resistant Staphylococcus aureus MRSA 18-575, 18-596; drug-resistant gram-negative bacteria: multi-drug-resistant Pseudomonas aeruginosa MDR-PA 18-126, 18-756. The experimental strains were all donated by Huashan Hospital Affiliated to Fudan University (Fudan University Antibiotic Research Institute), and used after being identified by conventional methods.
(§3) The specific steps are as follows:
(§4) Preparation of MHB medium: Weigh 20.0 g of MHB medium, add it to 1L of distilled water, heat and boil until it is completely dissolved, divide it into conical flasks, autoclave at 121° C. for 15 minutes, and set aside.
(§5) Cultivate the experimental strains to the logarithmic growth phase: under aseptic conditions, inoculate the experimental strains into 100 mL of MHB medium, and place them in a constant temperature and humidity incubator at 37° C. for 20-22 hours for use.
(§6) Preparation of stock solution: Weigh the sample to be tested and dissolve it with 1% DMSO solution to prepare a stock solution with a concentration of 2560 μg/mL; weigh the positive control substance and dissolve it with sterile distilled water to prepare a stock solution with a concentration of 2560 μg/mL.
(§7) Bacterial suspension preparation: Under aseptic conditions, the experimental strains cultured to the logarithmic growth phase are calibrated to 0.5 McDonald's unit turbidity standard with MHB medium and diluted at a ratio of […] to prepare a concentration of 10^6 CFU/mL Bacterial suspension, spare.
(§8) Stock solution dilution and inoculation of experimental strains: under aseptic conditions, dilute the stock solution to a solution of 256 μg/mL. Take a sterile 96-well plate, add 100 μL of MHB medium to each well except for wells 1-3; add 100 μL of positive control solution to well 2 and 100 μL of compound sample solution to wells 3 and 4; Mix the sample solution in the well with the culture medium, and then pipet 100 μL to the fifth well. After mixing, pipet 100 μL to the sixth well, and then dilute to the tenth well by successive times, and then take 100 μL from the tenth well and discard it. The 11th well is a growth control without drugs; then, add 100 μL of the above-prepared bacterial suspension to each well, so that the final bacterial concentration in each well is 5×10^5 CFU/mL; at this point, the positive control concentration is 128 μg/mL, the concentration of the sample solution is 128, 64, 32, 16, 8, 4, 2, 1 μg/mL.
(§9) Incubation: Cover the 96-well plate that has been inoculated with experimental strains and place it in a constant temperature and humidity box at 37° C. for 20-22 hours.
(§10) Record the results as shown in FIGS. 1 to 10 (the holes are in order from left to right corresponding to positive, 128, 64, 32, 16, 8, 4, 2, 1, negative) and Table 1.

[2] = test system: methicillin-resistant Staphylococcus aureus MRSA 18-596; experiment: micro broth dilution MIC, MRSA 18-596
Excerpt: as §1, §2, §3, §4, §5, §6, §7, §8, §9, §10

[3] = test system: multi-drug-resistant Pseudomonas aeruginosa MDR-PA 18-126; experiment: micro broth dilution MIC, MDR-PA 18-126
Excerpt: as §1, §2, §3, §4, §5, §6, §7, §8, §9, §10

[4] = test system: multi-drug-resistant Pseudomonas aeruginosa MDR-PA 18-756; experiment: micro broth dilution MIC, MDR-PA 18-756; settings: read-out: The minimum inhibitory concentration, MDR-PA 18-756
Excerpt: as §1, §2, §3, §4, §5, §6, §7
as §8, with “1 μg/mL. […]” for “1 μg/mL.”

[5] = MRSA, read-out: The minimum inhibitory concentration, MRSA 18-596
[6] = read-out: The minimum inhibitory concentration, MDR-PA 18-126

Compound	MIC ([1]; MRSA)	MIC [2, 5]	MIC [3, 6]	MIC [4]	MIC ([2]; MRSA, read-out: MIC against drug-resistant gram-positive bacteria MRSA)	MIC ([3]; read-out: MIC against MDR-PA)	MIC ([1]; strain MRSA 18-575, MHB medium, 37° C., 20-22 hours)	MIC ([2]; strain MRSA 18-596, MHB medium, 37° C., 20-22 hours, read-out: The minimum inhibitory concentration, MRSA 18-596)	MIC ([3]; strain MDR-PA 18-126, MHB medium, 37° C., 20-22 hours, read-out: The minimum inhibitory concentration, MDR-PA 18-126)	MIC ([4]; strain MDR-PA 18-756, MHB medium, 37° C., 20-22 hours)
CCCCc1c[se]c(N)c1C#N [Compound 14]	128 µg/mL (≈ 563 µM)	64 µg/mL (≈ 282 µM)	64 µg/mL (≈ 282 µM)	> 128 µg/mL						
CN[C@H](CC(C)C)C(=O)N[C@H]1C(=O)N[C@@H](CC(N)=O)C(=O)N[C@H]2C(=O)N[C@H]3C(=O)N[C@H](C(=O)N[C@H](C(=O)O)c4cc(O)cc(O)c4-c4cc3ccc4O)[C@H](O)c3ccc(c(Cl)c3)Oc3cc2cc(c3O[C@@H]2O[C@H](CO)[C@@H](O)[C@H](O)[C@H]2O[C@H]2C[C@](C)(N)[C@H](O)[C@H](C)O2)Oc2ccc(cc2Cl)[C@H]1O [Vancomycin, reference compound]	512 µg/mL (≈ 353 µM)	512 µg/mL (≈ 353 µM)								
N#Cc1c(N)[se]c2c1CCCCC2 [Compound 11]	32 µg/mL (≈ 134 µM)	16 µg/mL (≈ 66.9 µM)	64 µg/mL (≈ 268 µM)	64 µg/mL (≈ 268 µM)	16 µg/mL (≈ 66.9 µM)	64 µg/mL (≈ 268 µM)				
CC(C)(O/N=C(\C(=O)N[C@@H]1C(=O)N2C(C(=O)[O-])=C(C[n+]3ccccc3)CS[C@H]12)c1csc(N)n1)C(=O)O [Ceftazidime, reference compound]							128 µg/mL (≈ 234 µM)	128 µg/mL (≈ 234 µM)	128 µg/mL (≈ 234 µM)	128 µg/mL (≈ 234 µM)
N#Cc1c(N)[se]c2c1CCCC2 [Compound 9]	128 µg/mL (≈ 569 µM)	128 µg/mL (≈ 569 µM)	> 128 µg/mL	128 µg/mL (≈ 569 µM)						
